Measurements reported in PubChem BioAssay (NCI).
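GI50: concentration for 50% inhibition of growth. TGI is the concentration that stops growth completely.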

Columns and labels:
Assay in all cases: NCI tumour cell line growth inhibition, 384-well format
NCI-H23 lung = tested on: NCI-H23 lung
NCI-H322M lung = tested on: NCI-H322M lung
NCI-H460 NSCLC = tested on: NCI-H460 NSCLC
NCI-H522 lung = tested on: NCI-H522 lung
NCI/ADR-RES ovarian = tested on: NCI/ADR-RES ovarian
OVCAR-3 ovarian = tested on: OVCAR-3 ovarian
OVCAR-4 ovarian = tested on: OVCAR-4 ovarian
OVCAR-5 ovarian = tested on: OVCAR-5 ovarian
OVCAR-8 ovarian = tested on: OVCAR-8 ovarian
PC-3 prostate = tested on: PC-3 prostate
RPMI-8226 leukemia = tested on: RPMI-8226 leukemia
RXF 393 renal = tested on: RXF 393 renal
SF-268 CNS = tested on: SF-268 CNS
SF-295 CNS = tested on: SF-295 CNS
SF-539 CNS = tested on: SF-539 CNS
SK-MEL-2 melanoma = tested on: SK-MEL-2 melanoma
SK-MEL-28 melanoma = tested on: SK-MEL-28 melanoma
SK-MEL-5 melanoma = tested on: SK-MEL-5 melanoma
SK-OV-3 ovarian = tested on: SK-OV-3 ovarian
SN12C renal = tested on: SN12C renal
SNB-19 CNS = tested on: SNB-19 CNS
SR leukemia = tested on: SR leukemia
SW-620 colon = tested on: SW-620 colon
T-47D breast = tested on: T-47D breast
TK-10 renal = tested on: TK-10 renal
U251 glioblastoma = tested on: U251 glioblastoma
UACC-257 melanoma = tested on: UACC-257 melanoma
UACC-62 melanoma = tested on: UACC-62 melanoma
UO-31 renal = tested on: UO-31 renal

What does the source list for C=CC(=O)N1CCN(c2nc(OC[C@@H]3CCCN3C)nc3c2CCN(c2cccc4cccc(C)c24)C3)C[C@@H]1CC#N?
GI50 (NCI-H23 lung): < 10 nM; GI50 (NCI-H322M lung): 1440 nM; TGI (NCI-H322M lung): 2760 nM; GI50 (NCI-H460 NSCLC): 754 nM; TGI (NCI-H460 NSCLC): 2060 nM; GI50 (NCI-H522 lung): 343 nM; TGI (NCI-H522 lung): 1390 nM; GI50 (NCI/ADR-RES ovarian): 1610 nM; TGI (NCI/ADR-RES ovarian): 2970 nM; GI50 (OVCAR-3 ovarian): 362 nM; TGI (OVCAR-3 ovarian): 1360 nM; GI50 (OVCAR-4 ovarian): 465 nM; TGI (OVCAR-4 ovarian): 1690 nM; GI50 (OVCAR-5 ovarian): 1470 nM; TGI (OVCAR-5 ovarian): 2800 nM; GI50 (OVCAR-8 ovarian): 1050 nM; TGI (OVCAR-8 ovarian): 2240 nM; GI50 (PC-3 prostate): 759 nM; TGI (PC-3 prostate): 1980 nM; GI50 (RPMI-8226 leukemia): 193 nM; TGI (RPMI-8226 leukemia): 377 nM; GI50 (RXF 393 renal): 189 nM; TGI (RXF 393 renal): 575 nM; GI50 (SF-268 CNS): 495 nM; TGI (SF-268 CNS): 1670 nM; GI50 (SF-295 CNS): 1590 nM; TGI (SF-295 CNS): 2940 nM; GI50 (SF-539 CNS): 644 nM; TGI (SF-539 CNS): 1940 nM; GI50 (SK-MEL-2 melanoma): 194 nM; TGI (SK-MEL-2 melanoma): 595 nM; GI50 (SK-MEL-28 melanoma): 1620 nM; TGI (SK-MEL-28 melanoma): 2980 nM; GI50 (SK-MEL-5 melanoma): 1500 nM; TGI (SK-MEL-5 melanoma): 2840 nM; GI50 (SK-OV-3 ovarian): 540 nM; TGI (SK-OV-3 ovarian): 1860 nM; GI50 (SN12C renal): 1240 nM; TGI (SN12C renal): 2500 nM; GI50 (SNB-19 CNS): 1570 nM; TGI (SNB-19 CNS): 2930 nM; GI50 (SR leukemia): 134 nM; TGI (SR leukemia): 267 nM; GI50 (SW-620 colon): 1310 nM; TGI (SW-620 colon): 2620 nM; GI50 (T-47D breast): 637 nM; TGI (T-47D breast): 2010 nM; GI50 (TK-10 renal): 505 nM; TGI (TK-10 renal): 1700 nM; GI50 (U251 glioblastoma): 1010 nM; TGI (U251 glioblastoma): 2200 nM; GI50 (UACC-257 melanoma): 833 nM; TGI (UACC-257 melanoma): 2070 nM; GI50 (UACC-62 melanoma): 411 nM; TGI (UACC-62 melanoma): 1500 nM; GI50 (UO-31 renal): 983 nM; TGI (UO-31 renal): 2150 nM
